From ChEMBL document CHEMBL1128787, “Design of a new selective cysteine protease inactivator and its mechanistic implications” (Bioorg Med Chem Lett, 1995)

Key:
Cathepsin B [1] = molecular target: T1, Cathepsin B (Homo sapiens, UniProt P07858); assay: Kinetic parameter (kinact 1/min) was evaluated for the inactivation of cathepsin B
Cathepsin B [2] = molecular target: T1, Cathepsin B; assay: Kinetic parameter (Ki mM) was evaluated for the inactivation of cathepsin B
Papain [3] = molecular target: T2, Papain (Carica papaya, UniProt P00784); assay: Kinetic parameter (Ki 1/min) was evaluated for the inactivation of papain
T2 sequence (P00784 whole entry): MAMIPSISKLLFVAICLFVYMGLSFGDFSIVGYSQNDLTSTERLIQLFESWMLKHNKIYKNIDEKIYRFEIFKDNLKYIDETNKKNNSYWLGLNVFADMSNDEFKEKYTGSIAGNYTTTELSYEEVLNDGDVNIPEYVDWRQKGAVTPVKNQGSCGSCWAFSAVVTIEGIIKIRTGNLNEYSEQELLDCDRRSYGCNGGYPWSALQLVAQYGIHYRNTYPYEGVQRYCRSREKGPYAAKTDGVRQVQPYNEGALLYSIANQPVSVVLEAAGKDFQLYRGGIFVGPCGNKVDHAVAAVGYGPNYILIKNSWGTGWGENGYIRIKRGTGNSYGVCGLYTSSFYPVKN

Papain [4] = molecular target: T2, Papain; assay: Kinetic parameter (Ki mM) was evaluated for the inactivation of papain

O=C(N[C@@H](Cc1ccccc1)[C@H]1CO1)OCc1ccccc1
kinact (Cathepsin B [1]): 0.087 min⁻¹ | Ki (Cathepsin B [2]): 367 µM | Ki (Papain [3]): 0.208 min⁻¹ | Ki (Papain [4]): 574 µM
